From the NIST ThermoML archive (doi:10.1021/je600583u)

Test: xn = mol fraction of the nth substance listed
Details: Fluid (supercritical or subcritical phases), isochoric method

CC(F)F [1,1-difluoroethane] + O=C=O
Details | molar volume [m3/mol]
293.08 K, 3005 kPa, x2 = 0.873 | 0.000595
293.09 K, 577 kPa, x2 = 0.25 | 0.003751
293.09 K, 699 kPa, x2 = 0.389 | 0.00308
293.09 K, 930 kPa, x2 = 0.503 | 0.002291
293.09 K, 1290 kPa, x2 = 0.685 | 0.001629
293.09 K, 1572 kPa, x2 = 0.731 | 0.001321
293.1 K, 1257 kPa, x2 = 0.631 | 0.001641
298.07 K, 590 kPa, x2 = 0.25 | 0.003752
298.07 K, 715 kPa, x2 = 0.389 | 0.003081
298.07 K, 952 kPa, x2 = 0.503 | 0.002292
298.07 K, 1610 kPa, x2 = 0.731 | 0.001321
298.07 K, 3114 kPa, x2 = 0.873 | 0.000595
298.08 K, 1320 kPa, x2 = 0.685 | 0.00163
298.09 K, 1287 kPa, x2 = 0.631 | 0.001641
303.04 K, 3203 kPa, x2 = 0.873 | 0.000595
303.05 K, 602 kPa, x2 = 0.25 | 0.003753
303.05 K, 973 kPa, x2 = 0.503 | 0.002292
303.06 K, 589 kPa, x2 = 0.117 | 0.003796
303.06 K, 731 kPa, x2 = 0.389 | 0.003081
303.06 K, 1350 kPa, x2 = 0.685 | 0.00163
303.06 K, 1648 kPa, x2 = 0.731 | 0.001321
303.07 K, 1317 kPa, x2 = 0.631 | 0.001642
308.03 K, 602 kPa, x2 = 0.117 | 0.003797
308.03 K, 3292 kPa, x2 = 0.873 | 0.000595
308.04 K, 615 kPa, x2 = 0.25 | 0.003753
308.04 K, 746 kPa, x2 = 0.389 | 0.003082
308.04 K, 994 kPa, x2 = 0.503 | 0.002293
308.04 K, 1380 kPa, x2 = 0.685 | 0.00163
308.05 K, 1346 kPa, x2 = 0.631 | 0.001642
308.05 K, 1685 kPa, x2 = 0.731 | 0.001322
313.02 K, 615 kPa, x2 = 0.117 | 0.003798
313.02 K, 3380 kPa, x2 = 0.873 | 0.000595
313.03 K, 627 kPa, x2 = 0.25 | 0.003754
313.03 K, 761 kPa, x2 = 0.389 | 0.003083
313.03 K, 1015 kPa, x2 = 0.503 | 0.002293
313.03 K, 1409 kPa, x2 = 0.685 | 0.001631
313.03 K, 1722 kPa, x2 = 0.731 | 0.001322
313.04 K, 1375 kPa, x2 = 0.631 | 0.001642
318 K, 3467 kPa, x2 = 0.873 | 0.000596
318.01 K, 627 kPa, x2 = 0.117 | 0.003799
318.01 K, 776 kPa, x2 = 0.389 | 0.003084
318.01 K, 1035 kPa, x2 = 0.503 | 0.002294
318.01 K, 1438 kPa, x2 = 0.685 | 0.001631
318.02 K, 640 kPa, x2 = 0.25 | 0.003755
318.02 K, 1758 kPa, x2 = 0.731 | 0.001322
318.03 K, 1404 kPa, x2 = 0.631 | 0.001643
323 K, 640 kPa, x2 = 0.117 | 0.0038
323 K, 652 kPa, x2 = 0.25 | 0.003756
323 K, 791 kPa, x2 = 0.389 | 0.003084
323 K, 1056 kPa, x2 = 0.503 | 0.002294
323 K, 1467 kPa, x2 = 0.685 | 0.001632
323 K, 1794 kPa, x2 = 0.731 | 0.001322
323 K, 3554 kPa, x2 = 0.873 | 0.000596
323.01 K, 1433 kPa, x2 = 0.631 | 0.001643
327.97 K, 3638 kPa, x2 = 0.873 | 0.000596
327.98 K, 652 kPa, x2 = 0.117 | 0.003801
327.98 K, 1076 kPa, x2 = 0.503 | 0.002295
327.98 K, 1830 kPa, x2 = 0.731 | 0.001323
327.99 K, 664 kPa, x2 = 0.25 | 0.003757
327.99 K, 806 kPa, x2 = 0.389 | 0.003085
327.99 K, 1496 kPa, x2 = 0.685 | 0.001632
328 K, 1461 kPa, x2 = 0.631 | 0.001643
332.96 K, 3723 kPa, x2 = 0.873 | 0.000596
332.97 K, 664 kPa, x2 = 0.117 | 0.003801
332.97 K, 820 kPa, x2 = 0.389 | 0.003086
332.97 K, 1096 kPa, x2 = 0.503 | 0.002295
332.97 K, 1524 kPa, x2 = 0.685 | 0.001632
332.97 K, 1866 kPa, x2 = 0.731 | 0.001323
332.98 K, 676 kPa, x2 = 0.25 | 0.003758
332.98 K, 1489 kPa, x2 = 0.631 | 0.001644
337.94 K, 3807 kPa, x2 = 0.873 | 0.000596
337.95 K, 835 kPa, x2 = 0.389 | 0.003086
337.95 K, 1116 kPa, x2 = 0.503 | 0.002296
337.96 K, 677 kPa, x2 = 0.117 | 0.003802
337.96 K, 688 kPa, x2 = 0.25 | 0.003758
337.96 K, 1553 kPa, x2 = 0.685 | 0.001633
337.96 K, 1901 kPa, x2 = 0.731 | 0.001323
337.97 K, 1517 kPa, x2 = 0.631 | 0.001644
342.93 K, 3890 kPa, x2 = 0.873 | 0.000596
342.94 K, 850 kPa, x2 = 0.389 | 0.003087
342.94 K, 1136 kPa, x2 = 0.503 | 0.002296
342.94 K, 1580 kPa, x2 = 0.685 | 0.001633
342.94 K, 1936 kPa, x2 = 0.731 | 0.001324
342.95 K, 689 kPa, x2 = 0.117 | 0.003803
342.95 K, 700 kPa, x2 = 0.25 | 0.003759
342.96 K, 1545 kPa, x2 = 0.631 | 0.001645
